Tests used:
[1] = biological target: T1, chimeric HBV:HIV RNAseH HHC1 (Hepatitis B virus genotype D subtype ayw, UniProt P03156, DELINS787-795VNQIIEQLIVK/INS679M); assay: Oligonucleotide-directed RNAseH cleavage assay, chimeric HHC1; assay type: biochemical; details: read-out: Residual activity at 10 uM, HHC1
T1 construct: HHC1 is an HRHPL derivative; made in house; host or cells: E. coli BL21 codon+
Summary of the method: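 Bacterially expressed C-terminal His-tagged HHC1 (HRHPL, HBV genotype D pol 684-845, with residues 800-808 swapped for HIV RNAseH helix D) extract mixed with internally 32P-labeled DRF+ RNA and oligonucleotide D2507- (D2526+ negative control), 42 °C, 90 min. Products resolved by 12% SDS-PAGE, autoradiographed and quantified; compounds added in DMSO, DMSO vehicle control.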

[2] = biological target: HCV RNA-directed RNA polymerase (Hepatitis C virus genotype 1a, UniProt P27958); assay: Primed homopolymeric RNA (poly-G) synthesis assay; assay type: biochemical; details: 10 μM
Description: FIGS. 9A-C. Specificity of anti-HBV RNAseH compounds. (FIG. 9A) Inhibition of HBV genotype D RNAseH by irrelevant compounds at 10 μM in the oligonucleotide-directed RNAseH assay. Compound #4 was employed as an example HBV RNAseH inhibitor. […] The ability of compounds #5, 6 and 8 to inhibit production of poly-G by the HCV RNA-directed RNA polymerase was measured in a primed homopolymeric RNA synthesis assay (Cao, et al., 2011. The compounds were employed at 10 μM. DMSO, vehicle control. (FIG. 9C) Dose-responsiveness of HBV RNAseH inhibition. The effects of compounds #6, 8, and 12 on the RNAseH activity of HRHPL (genotype D) were measured at concentrations ranging from 0.5 to 50 μM. The dose-response profile is plotted for compound #12.

[3] = tested on: HBV genotype A; assay: Plus-polarity preferential real-time PCR of HBV DNA, Huh7 cells; assay type: cell-based, Hepatitis B virus
Description: Plus-polarity preferential quantitative TaqMan PCR for the HBV DNA was conducted employing forward primer […] (SEQ ID NO: 13), reverse primer […] (SEQ ID NO:14), and probe 5′-6Fam-[…]-Zen-[…]-IabkFQ-3′ (5′-6Fam-SEQ ID NO:15-Zen-SEQ ID NO: 16-IabkFQ-3′) (Integrated DNA Technologies). PCR was conducted on purified HBV capsid-derived nucleic acids for 40 cycles of 95° C. for 15 sec. and 65° C. for 1 min. employing the TaqMan universal PCR master mix (Applied Biosystems). Results were standardized against serial dilutions of cloned HBV DNA. The EC50 was estimated by linear regression of the real-time PCR data.
The HBV plus-polarity DNA strand was measured to quantify the effects of βTJ on HBV replication because plus-polarity DNA cannot be made without RNAseH activity. Real-time PCR primers flanking the gap in the HBV minus-polarity DNA were designed that preferentially measure plus-polarity DNA because amplification across the gap in the minus-polarity DNA is inefficient. […] Above 10 μM, βTJ suppressed HBV plus-polarity DNA levels to below the assay background of approximately 14% that was determined with the D702A RNAseH-deficient genome.

[4] = biological target: T2, HBV genotype D RNAseH (HRHPL) (Hepatitis B virus genotype D subtype ayw, UniProt P03156, INS679M); details: Tavis et al., 2013; read-out: IC50 against the HBV RNAseH, previously reported; cited from earlier work
T2 construct: HRHPL contains HBV genotype D (Genbank V01460) polymerase residues 684-845; made in house; host or cells: E. coli BL21 codon+

[5] = tested on: HepG2 cells; assay: MTS cytotoxicity assay in HepG2 cells; assay type: cell-based, human; details: four days
Description: Toxicity of βTJ in Huh7 cells was determined with 3-(4,5-dimethylthiazol-2-yl)-5-β-carboxymethoxyphenyl)-2-(4-sulfophenyl)-2H-tetrazolium (MTS) assays that measures mitochondrial dysfunction employing the Cell Titre 96 aqueous nonradioactive cell proliferation assay (Promega), and with the CytoTox-Glo assay (Promega) that reflects cellular integrity. Huh7 and HepG2 cells (1×10^4) were plated in 96-well tissue culture plates, medium containing βTJ at the indicated concentrations was added the next day, the medium was replaced with fresh medium containing βTJ after two days, and after four days the MTS or CytoTox-Glo assays were conducted according to the manufacturer's instructions.

[6] = tested on: CEM-SS cells; details: cited from earlier work

T1 sequence (P03156 680-786, added parts left off, stated change not applied): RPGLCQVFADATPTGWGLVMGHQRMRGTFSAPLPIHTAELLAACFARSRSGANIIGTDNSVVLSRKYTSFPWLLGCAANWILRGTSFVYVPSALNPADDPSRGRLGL
Chain of HCV RNA-directed RNA polymerase (P27958 2421-3011): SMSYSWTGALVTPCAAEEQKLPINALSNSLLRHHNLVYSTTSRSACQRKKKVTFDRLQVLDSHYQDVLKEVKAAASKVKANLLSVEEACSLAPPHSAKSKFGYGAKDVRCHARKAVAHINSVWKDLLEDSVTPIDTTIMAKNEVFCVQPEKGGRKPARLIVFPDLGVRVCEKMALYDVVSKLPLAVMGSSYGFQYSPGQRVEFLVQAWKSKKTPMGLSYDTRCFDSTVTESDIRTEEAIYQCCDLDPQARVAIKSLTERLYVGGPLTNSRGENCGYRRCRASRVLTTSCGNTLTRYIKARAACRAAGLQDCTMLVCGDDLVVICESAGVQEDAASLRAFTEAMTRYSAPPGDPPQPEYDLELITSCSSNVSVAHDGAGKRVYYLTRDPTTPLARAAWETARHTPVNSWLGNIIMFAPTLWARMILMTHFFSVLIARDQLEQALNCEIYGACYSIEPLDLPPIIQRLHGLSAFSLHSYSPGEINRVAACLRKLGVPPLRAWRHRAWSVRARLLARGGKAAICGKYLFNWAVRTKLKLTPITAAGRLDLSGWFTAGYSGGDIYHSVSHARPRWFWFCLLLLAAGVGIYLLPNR
T2 sequence (P03156 680-832, added parts left off, stated change not applied): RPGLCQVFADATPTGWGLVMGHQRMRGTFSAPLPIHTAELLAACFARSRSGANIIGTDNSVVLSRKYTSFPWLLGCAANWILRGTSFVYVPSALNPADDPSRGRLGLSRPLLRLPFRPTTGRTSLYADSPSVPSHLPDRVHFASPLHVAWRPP

Cc1nnc(C(=O)NC(C)(C)c2nc(C(=O)NCc3ccc(F)cc3)c(O)c(=O)n2C)o1 [Compound 11, Raltegravir, reference compound]
remaining activity at 10 µM [1]: 59 ± 23%

Cc1c2cc(O)c(=O)cc-2oc2cc(O)c(O)cc12 [Compound 8]
Inhibition of poly-G production by HCV RNA polymerase [2]: do not significantly inhibit

NCc1ccc(-c2ccc(Cc3cc(=O)n(O)c4ncccc34)cc2)cc1 [Compound 12, napthyridinone]
Plus-strand DNA accumulation ([3]; 10 μM, data not shown): 7.3 % of the DMSO treated control | IC50 [4]: 2500 nM

COc1cc2c(cc1Cc1cccc(Cl)c1F)c(=O)c(C(=O)O)cn2[C@H](CO)C(C)C [Compound 10, Elvitegravir, reference compound]
remaining activity at 10 µM [1]: 35 ± 7%

CC(C)c1ccc(O)c(=O)c(O)c1 [Compound 46, beta-thujaplicinol]
HBV plus-polarity DNA level ([3]; above 10 μM, assay background approximately 14%): < 14% | EC50 ([3]; read-out: 50% effective concentration (EC50), genotype A isolate in Huh7 cells): ~5 µM | CC50 [5]: 16.7 ± 3.7 µM | CC50 [6]: 2300 nM
